The source of these data is PMC9597602, “Metal Complexes as Antifungals? From a Crowd-Sourced Compound Library to the First In Vivo Experiments” (JACS Au, 2022).

“And” between values parts separate entries of the source, which are not always exact repeats. Equal values may be shown once. Read-outs that look alike come from different tables or passages of the source.

Data set [1] deals with Candida albicans ATCC 90028 NCCLS11. The experiment in a line: Antifungal MIC assay. Particulars: for MIC: Candida albicans, ATCC90028, comparator antifungals, read-out: MIC* Candida albicans ATCC 90028. It counts as cell-based. The protocol: For the fungal assays, both fungi (yeast) strains were cultured for 3 days on Yeast Extract-Peptone Dextrose (YPD; Becton Dickinson 242720) agar at 30 °C. A yeast suspension of 1 × 10^6 to 5 × 10^6 CFU/mL (as determined by OD530) was prepared from five colonies from the agar plates, subsequently diluted with Yeast Nitrogen Base media (YNB; Becton Dickinson 233520), and added to each well of the compound containing plates (384-well plates, NBS; Corning CLS3640), giving a final cell density of 2.5 × 10^3 CFU/mL and a total volume of 50 μL. Plates were covered and incubated at 35 °C for 36 h without shaking. […] […], equivalent to ″optically clear-to-slightly hazy″ or MIC score of 0–1 as per CLSI guidelines M27 Reference Method for Broth Dilution Antifungal Susceptibility Testing of Yeasts. […] Fluconazole (Sigma F8929) was used as internal control on each plate for all strains. All compounds were tested as two technical replicates in two to four independent biological assays, n = 4–8 final data.

For data set [2], the system named is Cryptococcus neoformans H99 ATCC 208821 type strain. The data set can be described thus: Antifungal MIC assay. The following applies: for MIC: Cryptococcus neoformans, ATCC208821, read-out: MIC* Cryptococcus neoformans ATCC 208821. It is filed as cell-based. The protocol:
For the fungal assays, both fungi (yeast) strains were cultured for 3 days on Yeast Extract-Peptone Dextrose (YPD; Becton Dickinson 242720) agar at 30 °C. A yeast suspension of 1 × 10^6 to 5 × 10^6 CFU/mL (as determined by OD530) was prepared from five colonies from the agar plates, subsequently diluted with Yeast Nitrogen Base media (YNB; Becton Dickinson 233520), and added to each well of the compound containing plates (384-well plates, NBS; Corning CLS3640), giving a final cell density of 2.5 × 10^3 CFU/mL and a total volume of 50 μL. Plates were covered and incubated at 35 °C for 36 h without shaking. […] MIC values were recorded as the lowest concentration at which the growth was inhibited by ≥80%, equivalent to ″optically clear-to-slightly hazy″ or MIC score of 0–1 as per CLSI guidelines M27 Reference Method for Broth Dilution Antifungal Susceptibility Testing of Yeasts. […] Fluconazole (Sigma F8929) was used as internal control on each plate for all strains. All compounds were tested as two technical replicates in two to four independent biological assays, n = 4–8 final data.

The test system of data set [3] is methicillin-resistant Staphylococcus aureus ATCC 43300. The experiment in a line: CO-ADD antibacterial MIC assay. It counts as cell-based. On the procedure: (§1) For the all the bacterial assays, each bacterial strain was cultured in cation-adjusted Mueller Hinton broth (CAMHB; Bacto Laboratories 212322) at 37 °C overnight. A sample of each culture was then diluted 40-fold in fresh CAMHB and incubated at 37 °C for 1.5–3 h. The resultant mid-log phase cultures were diluted with CAMHB (CFU/mL measured by OD600) and then added to each well of the compound-containing plates (384-well non-binding surface (NBS) plates; Corning CLS3640), giving a cell density of 5 × 10^5 CFU/mL and a total volume of 50 μL. Plates were covered and incubated at 37 °C for 18 h without shaking. Inhibition of bacterial growth was determined by measuring the absorbance at 600 nm (OD600) using media only as negative control and bacteria without inhibitors as positive control. MIC values were determined as the lowest concentration at which the growth was inhibited by ≥80% (equivalent to no visible growth by the eye). Colistin sulfate (Sigma C4461) and vancomycin HCl (Sigma 861987) were used as internal controls on each plate for Gram-negative and Gram-positive bacteria, respectively. All compounds were tested as two technical replicates in two independent biological assays, n = 4 final data.

Data set [4] deals with Escherichia coli ATCC 25922 FDA control strain. The experiment in a line: CO-ADD antibacterial MIC assay. It counts as cell-based. On the procedure: as §1
Data set [5] relates to Acinetobacter baumannii ATCC 19606 type strain. The experiment in a line: CO-ADD antibacterial MIC assay. It counts as cell-based. On the procedure:
as §1

Data set [6] relates to Pseudomonas aeruginosa ATCC 27853 QC control strain. The experiment in a line: CO-ADD antibacterial MIC assay. It counts as cell-based. On the procedure: as §1
For data set [7], the system named is human red blood cells. It is filed as cell-based. The following applies: initial CO-ADD screening, 1 h; 10% hemolysis. On the procedure:
Human whole blood (Australian Red Cross) was washed three times with 3 vol of 0.9% NaCl and resuspended in a concentration of 0.5 × 10^8 cells/mL, determined by a manual cell count in a Neubauer hemocytometer. […] After incubation, the plates were centrifuged at 1000g for 10 min to pellet cells and debris; 25 μL of the supernatant was then transferred to reading plates (384-well, polystyrene plated (PS), Corning CLS3680), with hemolysis determined by measuring the supernatant absorbance at […] (OD405) using cells without inhibitors as negative control and cells with 1% Triton X-100 (Sigma T8787) as positive control. […] Melittin (Sigma M2272) was used as internal control on each plate.

Data set [8] has as its system HEK-293 human embryonic kidney cells ATCC CRL-1573. The following applies: for HEK CC50: initial CO-ADD screening, 20 h. On the procedure:
The cells were incubated together with the compounds for 20 h at 37 °C in 5% CO2. […] Tamoxifen (Sigma T5648) was used as internal control on each plate.

The test system of data set [9] is Candida auris CBS10913 JCM 15448. The experiment in a line: Antifungal MIC assay, extended panel. It counts as cell-based. The following applies: Candidozyma auris, comparator antifungals, read-out: MIC* Candida auris CBS10913. The protocol:
(§2) For the fungal assays, both fungi (yeast) strains were cultured for 3 days on Yeast Extract-Peptone Dextrose (YPD; Becton Dickinson 242720) agar at 30 °C. A yeast suspension of 1 × 10^6 to 5 × 10^6 CFU/mL (as determined by OD530) was prepared from five colonies from the agar plates, subsequently diluted with Yeast Nitrogen Base media (YNB; Becton Dickinson 233520), and added to each well of the compound containing plates (384-well plates, NBS; Corning CLS3640), giving a final cell density of 2.5 × 10^3 CFU/mL and a total volume of 50 μL. Plates were covered and incubated at 35 °C for 36 h without shaking. […] MIC […] Reference Method for Broth Dilution Antifungal Susceptibility Testing of Yeasts. […] Fluconazole (Sigma F8929) was used as internal control on each plate for all strains. All compounds were tested as two technical replicates in two to four independent biological assays, n = 4–8 final data.

Data set [10] relates to Candida auris CBS12373 KCTC 17810. The experiment in a line: Antifungal MIC assay, extended panel. It is filed as cell-based. Particulars: Candidozyma auris, comparator antifungals, read-out: MIC* Candida auris CBS12373. On the procedure:
as §2

Where [11] appears, read: initial CO-ADD dose-response screening, ≥80% growth inhibition.
[12] abbreviates: ≥80% inhibition, converted with MW of Table S12.
Where [13] appears, read: single concentration (32 µg/mL) CO-ADD Primary Screening, no inhibition, no dose-response.

Take `Cc1cccc(C2(c3ccccc3)[C]([Au-][Cl])=C(C(C)(C)C)c3cccc(C)[n+]32)n1` (stereo not drawn) [Au-S15]: in data set [1] (setting [11]), the “MIC Ca” value was “<= 0.25 μg/mL”. In addition, in data set [2] (setting [11]), the “MIC Cn” value is reported as “<= 0.25 μg/mL”. The “MIC MRSA (Sa)” value in [3] (setting [11]) is 2 µg/mL. Also, in [4] (setting [11]), the “MIC Ec” value is over 32 µg/mL. Moreover, the “MIC Ab” value in data set [5] (setting [11]) was 32 µg/mL. Also, the “MIC Pa” value in data set [6] (setting [11]) came out at 32 µg/mL. For the same compound, the “RBC HC10” value in data set [7] is over 32 µg/mL. The “HEK CC50” value in data set [8] is over 32 µg/mL.
Consider `CC(=O)N1CCN(c2ccc(OCC3COC(Cn4ccnc4)(c4ccc(Cl)cc4Cl)O3)cc2)CC1` (stereo not drawn) [Ketoconazole, reference compound], for which the MIC in [1] (MIC = ≥80% inhibition) is 0.002 to 0.004 µg/mL; in data set [1] (setting [12]) it was 0.005 to 0.01 µM; in data set [2], > 64 µg/mL and > 170 µM; in [9] (MIC = ≥80% inhibition) it was 0.004 to 0.016 µg/mL; in data set [9] (setting [12]) it was 0.01 to 0.042 µM; in data set [10] (MIC = ≥80% inhibition), at most 0.004 µg/mL. For the same compound, the MIC in [10] (setting [12]) was at most 0.01 µM.
Take `Cn1ccn(Cc2ccccc2)[c]1=[Au]1[S][Mo]2([S]1)[S][Au](=[c]1n(C)ccn1Cc1ccccc1)[S]2` (stereo not drawn) [Au-S10]: the “MIC Ca” value in data set [1] (setting [11]) was found to be 0.25 µg/mL.
In the case of `Cc1ccnc([S][Au][PH](c2ccco2)(c2ccco2)c2ccco2)n1` [Au-S2], the “HEK CC50” value in data set [8] was 1.38 µg/mL.
Take `O=C(O)c1ccc(N2N=C(/C=C/C=C/c3ccccc3)CC2/C=C/c2ccccc2)cc1` (racemic) [Ligand-Ag2]: in data set [1] (setting [13]), the “MIC Ca” value is over 32 µg/mL. Further, the “MIC Cn” value in [2] (setting [13]) was over 32 µg/mL. Also, the “MIC MRSA (Sa)” value in data set [3] (setting [13]) was over 32 µg/mL. In addition, the “MIC Ec” value in data set [4] (setting [13]) is over 32 µg/mL. Also, in data set [5] (setting [13]), the “MIC Ab” value was over 32 µg/mL. In addition, the “MIC Pa” value in data set [6] (setting [13]) is over 32 µg/mL.
For the compound `C[C@@H](c1ncncc1F)[C@](O)(Cn1cncn1)c1ccc(F)cc1F` [Voriconazole, reference compound], the MIC was 0.008 µg/mL in data set [1] (MIC = ≥80% inhibition); 0.032 µM in data set [1] (setting [12]); ≥ 64 µg/mL and ≥ 260 µM in [2]; 0.004 to 0.008 µg/mL in data set [9] (MIC = ≥80% inhibition); 0.016 to 0.032 µM in data set [9] (setting [12]); 0.156 µg/mL in data set [10] (MIC = ≥80% inhibition). In addition, the minimum inhibitory concentration (MIC) in data set [10] (setting [12]) was found to be 0.447 µM.
As for `FC(F)(F)c1ccnc([S][Au][PH](c2ccco2)(c2ccco2)c2ccco2)n1` [Au-S3], in data set [3] (setting [11]), the “MIC MRSA (Sa)” value was found to be 0.25 µg/mL.
On to `c1ccc([S][Au][PH](c2ccco2)(c2ccco2)c2ccco2)nc1` [Au-S1], for which, in [1] (setting [11]), the “MIC Ca” value was 16 µg/mL. Besides, the “MIC Cn” value in data set [2] (setting [11]) stood at 16 µg/mL. Also, in data set [3] (setting [11]), the “MIC MRSA (Sa)” value was determined as 16 µg/mL.
`COc1ccc(/C=C/C2=NN(c3ccc(C(=O)O)cc3)C(c3ccc(OC)c(OC)c3)C2)cc1OC` (racemic) [Ligand-Ag1]: the “MIC Ca” value in data set [1] (setting [13]) was over 32 µg/mL. Moreover, the “MIC Cn” value in data set [2] (setting [13]) is over 32 µg/mL. Also, in [3] (setting [13]), the “MIC MRSA (Sa)” value was over 32 µg/mL. Further, the “MIC Ec” value in data set [4] (setting [13]) was over 32 µg/mL. For the same compound, the “MIC Ab” value in [5] (setting [13]) is over 32 µg/mL. In [6] (setting [13]), the “MIC Pa” value is over 32 µg/mL.
Regarding `CC1=C(C)C(C)C(c2ccc(-c3ccccc3)cc2)=C1C.Cc1ccccc1NC1=[N][Ir]([Cl])[NH]C(NS(=O)(=O)c2ccc([N+](=O)[O-])cc2)=N1` [Ir2], in [8] (read-out: HEK293 CC50, ranges obtained upon retesting, new batch), the half-maximal cytotoxic concentration (CC50) fell in the range of 62 to 65 µM.
Take `O=C(O)c1ccc(N2N=C(/C=C/c3ccccc3)CC2c2ccccc2)cc1` (racemic) [Ligand-Ag3]: the “MIC Ca” value in data set [1] (setting [13]) is over 32 µg/mL. In addition, the “MIC Cn” value in [2] (setting [13]) is over 32 µg/mL. For the same compound, in [3] (setting [13]), the “MIC MRSA (Sa)” value was over 32 µg/mL. The “MIC Ec” value in [4] (setting [13]) is over 32 µg/mL. Besides, the “MIC Ab” value in data set [5] (setting [13]) is over 32 µg/mL. For the same compound, in data set [6] (setting [13]), the “MIC Pa” value is over 32 µg/mL.
Turning to `FC(F)(F)c1ccnc([S][Au][PH](c2ccccc2)(c2ccccc2)c2ccccc2)n1` [Au-S6], the “MIC MRSA (Sa)” value in data set [3] (setting [11]) came out at 0.25 µg/mL.

Broadly, the MIC is the smallest concentration in the dilution series that meets the test's criterion for growth inhibition. The CC50 is the concentration that lowers cell viability or growth by half.
